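Test compounds were applied to cells in 96-well plates for 48 hours at 5 doses. At the GI50, growth is halved. TGI: total growth inhibition.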
Legend:
Assay in all cases: growth of human tumour cells (NCI), 48 h
U251 CNS = tested on: U251 CNS
MOLT-4 leukemia = tested on: MOLT-4 leukemia
HCT-15 colon = tested on: HCT-15 colon
NCI-H23 lung = tested on: NCI-H23 lung
ACHN renal = tested on: ACHN renal
OVCAR-8 ovarian = tested on: OVCAR-8 ovarian
HOP-18 NSCLC = tested on: HOP-18 NSCLC
DMS 114 small cell lung = tested on: DMS 114 small cell lung
SW-620 colon = tested on: SW-620 colon
NCI/ADR-RES ovarian = tested on: NCI/ADR-RES ovarian

## CCOC(=O)CCC1(C(=O)OCC)CCCC1=O (configuration not stated)
U251 CNS
  TGI: > 100 µM
MOLT-4 leukemia
  TGI: > 100 µM
HCT-15 colon
  TGI: > 100 µM
NCI-H23 lung
  TGI: > 100 µM
ACHN renal
  TGI: > 100 µM
OVCAR-8 ovarian
  TGI: > 100 µM
HOP-18 NSCLC
  TGI: > 100 µM
DMS 114 small cell lung
  TGI: > 100 µM

## N#C/C(=C\c1cccc(O)c1O)C(N)=O
SW-620 colon
  TGI: > 100 µM
U251 CNS
  TGI: > 100 µM
MOLT-4 leukemia
  TGI: > 100 µM
HCT-15 colon
  TGI: > 100 µM
NCI-H23 lung
  TGI: > 100 µM
ACHN renal
  TGI: > 100 µM
OVCAR-8 ovarian
  TGI: > 100 µM
DMS 114 small cell lung
  TGI: > 100 µM

## CN(C)/C=N\c1ccnc(=O)[nH]1
SW-620 colon
  TGI: > 100 µM
U251 CNS
  TGI: > 100 µM
HCT-15 colon
  TGI: > 100 µM
ACHN renal
  TGI: > 100 µM
OVCAR-8 ovarian
  TGI: > 100 µM
HOP-18 NSCLC
  TGI: > 100 µM
DMS 114 small cell lung
  TGI: > 100 µM

## CC1(c2cc3c(cc2Br)OCO3)SCCCS1
SW-620 colon
  TGI: > 100 µM
U251 CNS
  TGI: > 100 µM
MOLT-4 leukemia
  TGI: 96.2 µM
HCT-15 colon
  TGI: > 100 µM
NCI-H23 lung
  TGI: 45.5 µM
ACHN renal
  TGI: > 100 µM
OVCAR-8 ovarian
  TGI: > 100 µM
DMS 114 small cell lung
  TGI: > 100 µM

## COc1ccc(OC(C(=O)O)C(C)C)c2c1CCCC2=O (configuration not stated)
SW-620 colon
  TGI: > 100 µM
U251 CNS
  TGI: > 100 µM
MOLT-4 leukemia
  TGI: > 100 µM
HCT-15 colon
  TGI: > 100 µM
NCI-H23 lung
  TGI: > 100 µM
ACHN renal
  TGI: > 100 µM
OVCAR-8 ovarian
  TGI: > 100 µM
HOP-18 NSCLC
  TGI: > 100 µM
DMS 114 small cell lung
  TGI: > 100 µM

## Cc1c2c(cc3c1C(=O)C(=O)C1=C3OC[C@@H]1C)C(C)(C)CCC2
SW-620 colon
  TGI: 28.4 µM
U251 CNS
  TGI: 34.4 µM
MOLT-4 leukemia
  TGI: 32 µM
HCT-15 colon
  TGI: 27.6 µM
NCI-H23 lung
  TGI: 28.4 µM
ACHN renal
  TGI: 38.3 µM
OVCAR-8 ovarian
  TGI: 52.5 µM
HOP-18 NSCLC
  TGI: 32.3 µM
DMS 114 small cell lung
  TGI: 31.9 µM

## C#CCNC(=O)ON1C(=O)CCC1=O
SW-620 colon
  TGI: > 100 µM
U251 CNS
  TGI: > 100 µM
MOLT-4 leukemia
  TGI: > 100 µM
HCT-15 colon
  TGI: > 100 µM
NCI-H23 lung
  TGI: > 100 µM
ACHN renal
  TGI: > 100 µM
OVCAR-8 ovarian
  TGI: > 100 µM
HOP-18 NSCLC
  TGI: > 100 µM

## Cc1cc(C)nc(/C(=N\NC(N)=O)C(=O)Nc2nc3ccc(C)cc3s2)c1
SW-620 colon
  TGI: > 100 µM
U251 CNS
  TGI: > 100 µM
MOLT-4 leukemia
  TGI: > 100 µM
HCT-15 colon
  TGI: > 100 µM
NCI-H23 lung
  TGI: > 100 µM
ACHN renal
  TGI: > 100 µM
OVCAR-8 ovarian
  TGI: > 100 µM
HOP-18 NSCLC
  TGI: > 100 µM
DMS 114 small cell lung
  TGI: > 81.9 µM

## COc1ccc(-c2cc(C(=O)Nc3cc(C(F)(F)F)cc(C(F)(F)F)c3)c3ccccc3n2)cc1
SW-620 colon
  TGI: 21 µM
U251 CNS
  TGI: 15.5 µM
MOLT-4 leukemia
  TGI: > 100 µM
HCT-15 colon
  TGI: 28.7 µM
NCI-H23 lung
  TGI: 19.2 µM
ACHN renal
  TGI: 76.2 µM
OVCAR-8 ovarian
  TGI: 38.9 µM
HOP-18 NSCLC
  TGI: 51.8 µM
DMS 114 small cell lung
  TGI: 21.1 µM

## O=c1nc(-c2ccccc2)cc(CC(O)c2ccc(Cl)c(Cl)c2)[nH]1 (configuration not stated)
SW-620 colon
  TGI: > 100 µM
U251 CNS
  TGI: > 100 µM
MOLT-4 leukemia
  TGI: > 100 µM
HCT-15 colon
  TGI: > 100 µM
NCI-H23 lung
  TGI: > 100 µM
ACHN renal
  TGI: > 100 µM
OVCAR-8 ovarian
  TGI: > 100 µM
HOP-18 NSCLC
  TGI: > 100 µM
DMS 114 small cell lung
  TGI: > 100 µM

## Cl/C(N=Nc1ccccc1)=N/Nc1ccccc1
SW-620 colon
  TGI: > 100 µM
U251 CNS
  TGI: > 100 µM
MOLT-4 leukemia
  TGI: > 100 µM
NCI-H23 lung
  TGI: > 100 µM
ACHN renal
  TGI: > 100 µM
OVCAR-8 ovarian
  TGI: > 100 µM
HOP-18 NSCLC
  TGI: > 100 µM

## [O-]c1ccccc1C=Nc1ccc2c(c1)CCC2.[O-]c1ccccc1C=Nc1ccc2c(c1)CCC2.[O]=[U+2]=[O]
SW-620 colon
  GI50: > 100 µM
  TGI: > 100 µM
MOLT-4 leukemia
  GI50: 12.4 µM
  TGI: > 100 µM
HCT-15 colon
  GI50: 28.3 µM
  TGI: > 100 µM
NCI-H23 lung
  GI50: > 100 µM
  TGI: > 100 µM
ACHN renal
  GI50: 70.3 µM
  TGI: > 100 µM
OVCAR-8 ovarian
  GI50: 59.3 µM
  TGI: > 100 µM
HOP-18 NSCLC
  GI50: 8.74 µM
  TGI: > 100 µM
DMS 114 small cell lung
  GI50: 7.05 µM
  TGI: > 100 µM

## CN(C)c1ccc(/C=C2\N=C(c3ccccc3)N(c3cc(C(F)(F)F)ccc3Cl)C2=O)cc1
SW-620 colon
  GI50: > 100 µM
  TGI: > 100 µM
U251 CNS
  GI50: > 94.7 µM
  TGI: > 100 µM
MOLT-4 leukemia
  GI50: > 100 µM
  TGI: > 100 µM
HCT-15 colon
  GI50: > 100 µM
  TGI: > 100 µM
NCI-H23 lung
  GI50: > 100 µM
  TGI: > 100 µM
ACHN renal
  GI50: > 100 µM
  TGI: > 100 µM
OVCAR-8 ovarian
  GI50: > 100 µM
  TGI: > 100 µM
NCI/ADR-RES ovarian
  GI50: > 100 µM
  TGI: > 100 µM

## Cc1cccc2c1c1ccc3c(c1n2C)C(=O)C=CC3=O
SW-620 colon
  TGI: 4.33 µM
U251 CNS
  TGI: 25.8 µM
MOLT-4 leukemia
  TGI: 2.99 µM
HCT-15 colon
  TGI: 10.5 µM
NCI-H23 lung
  TGI: 29.3 µM
ACHN renal
  TGI: 18 µM
OVCAR-8 ovarian
  TGI: 32.1 µM
HOP-18 NSCLC
  TGI: 23.9 µM
DMS 114 small cell lung
  TGI: 21.1 µM

## CNc1ccc2ncccc2c1[N+](=O)[O-]
SW-620 colon
  TGI: > 100 µM
MOLT-4 leukemia
  TGI: > 100 µM
HCT-15 colon
  TGI: > 100 µM
NCI-H23 lung
  TGI: > 100 µM
ACHN renal
  TGI: > 100 µM
OVCAR-8 ovarian
  TGI: > 100 µM
HOP-18 NSCLC
  TGI: > 100 µM
DMS 114 small cell lung
  TGI: > 100 µM

## COC(=O)C1C(=O)CC2CCCCC21 (configuration not stated)
SW-620 colon
  TGI: > 100 µM
U251 CNS
  TGI: > 100 µM
MOLT-4 leukemia
  TGI: > 100 µM
HCT-15 colon
  TGI: > 100 µM
ACHN renal
  TGI: > 100 µM
DMS 114 small cell lung
  TGI: > 100 µM

## CCOc1ccc2c(c1)C(=O)c1c-2n(CCCBr)c(=O)c2cc([N+](=O)[O-])ccc12
SW-620 colon
  GI50: 4.63 µM
  TGI: > 100 µM
U251 CNS
  GI50: 6.13 µM
  TGI: > 100 µM
MOLT-4 leukemia
  GI50: 4.18 µM
  TGI: > 100 µM
HCT-15 colon
  GI50: 36 µM
  TGI: > 100 µM
NCI-H23 lung
  GI50: 7.14 µM
  TGI: > 100 µM
ACHN renal
  GI50: 3.76 µM
  TGI: 69.7 µM
OVCAR-8 ovarian
  GI50: 4.8 µM
  TGI: > 100 µM
NCI/ADR-RES ovarian
  GI50: 9.06 µM
  TGI: > 100 µM

— PubChem BioAssay (NCI)
